Experimental data reported in the NIST ThermoML archive (doi:10.1016/j.fluid.2017.03.021).

Tests used:
[1] = molar heat capacity at constant pressure; settings: 101.33 kPa, Liquid, DSC
[2] = 101.33 kPa, Liquid; for speed of sound: Sing-around technique in a fixed-path interferometer; for mass density: Vibrating tube method

CCCC[n+]1ccn(C2CCCC2)c1.O=S(=O)([N-]S(=O)(=O)C(F)(F)F)C(F)(F)F
Settings | mass density, [2] [kg/m3] | molar heat capacity at constant pressure, [1] [J/K/mol] | speed of sound, [2] [m/s]
287.15 K | 1384.9 | – | 1298.1
289.15 K | 1383.1 | – | 1293.1
291.15 K | 1381.2 | – | 1288.1
293.15 K | 1379.4 | 648.54 | 1283.2
294.15 K | – | 649.39 | –
295.15 K | 1377.5 | 650.01 | 1278.3
296.15 K | – | 650.62 | –
297.15 K | 1375.7 | 651.28 | 1273.4
298.15 K | – | 651.99 | –
299.15 K | 1373.8 | 652.8 | 1268.6
300.15 K | – | 653.46 | –
301.15 K | 1372 | 654.08 | 1263.8
302.15 K | – | 654.84 | –
303.15 K | 1370.2 | 655.4 | 1259
304.15 K | – | 656.21 | –
305.15 K | 1368.4 | 657.01 | 1254.2
306.15 K | – | 657.63 | –
307.15 K | 1366.5 | 658.43 | 1249.4
308.15 K | – | 659.14 | –
309.15 K | 1364.7 | 659.9 | 1244.7
310.15 K | – | 660.66 | –
311.15 K | 1362.9 | 661.42 | 1240
312.15 K | – | 662.22 | –
313.15 K | 1361.1 | 663.07 | 1235.3
314.15 K | – | 663.88 | –
315.15 K | 1359.3 | 664.73 | 1230.6
316.15 K | – | 665.35 | –
317.15 K | 1357.5 | 666.15 | 1226
318.15 K | – | 666.77 | –
319.15 K | 1355.7 | 667.43 | 1221.4
320.15 K | – | 668.19 | –
321.15 K | 1353.9 | 668.94 | 1216.7
322.15 K | – | 669.75 | –
323.15 K | 1352.1 | 670.51 | 1212.1
324.15 K | – | 671.26 | –
325.15 K | 1350.3 | 672.02 | 1207.6
326.15 K | – | 672.78 | –
327.15 K | 1348.5 | 673.49 | 1203
328.15 K | – | 674.44 | –
329.15 K | 1346.7 | 675.15 | 1198.5
330.15 K | – | 675.95 | –
331.15 K | 1344.9 | 676.8 | 1193.9
332.15 K | – | 677.56 | –
333.15 K | 1343.1 | 678.41 | 1189.4
334.15 K | – | 679.22 | –
335.15 K | 1341.3 | 680.21 | 1185
336.15 K | – | 680.88 | –
337.15 K | 1339.6 | 681.63 | 1180.5
338.15 K | – | 682.34 | –
339.15 K | 1337.8 | 683.01 | 1176.1
340.15 K | – | 683.91 | –
341.15 K | 1336 | 684.76 | 1171.7
342.15 K | – | 685.47 | –
343.15 K | 1334.3 | 686.27 | 1167.3
344.15 K | – | 686.94 | –
345.15 K | – | 687.65 | –
346.15 K | – | 688.45 | –
347.15 K | – | 689.07 | –
348.15 K | – | 690.11 | –
